The values below come from BindingDB's records for doi:10.1021/np8001628 (University of Utah, 2008).

One may read the EC50 as the concentration giving half of the maximal effect. Low values mean an effect from little substance, high ones a need for much substance.

Counter-ions that a name gives are not always drawn.

The target of the test is Transcription factor p65 (Human, UniProt Q04206). Nature of the test: Inhibition of IL1-induced NF-kappaB P65 activation in human osteoarthritic primary chondrocytes preincubated 2 hrs before addition of IL1 by ELISA. (In general: An ELISA detects its analyte on a solid surface through an enzyme-linked reagent.)
Transcription factor p65, sequence (Q04206 whole entry): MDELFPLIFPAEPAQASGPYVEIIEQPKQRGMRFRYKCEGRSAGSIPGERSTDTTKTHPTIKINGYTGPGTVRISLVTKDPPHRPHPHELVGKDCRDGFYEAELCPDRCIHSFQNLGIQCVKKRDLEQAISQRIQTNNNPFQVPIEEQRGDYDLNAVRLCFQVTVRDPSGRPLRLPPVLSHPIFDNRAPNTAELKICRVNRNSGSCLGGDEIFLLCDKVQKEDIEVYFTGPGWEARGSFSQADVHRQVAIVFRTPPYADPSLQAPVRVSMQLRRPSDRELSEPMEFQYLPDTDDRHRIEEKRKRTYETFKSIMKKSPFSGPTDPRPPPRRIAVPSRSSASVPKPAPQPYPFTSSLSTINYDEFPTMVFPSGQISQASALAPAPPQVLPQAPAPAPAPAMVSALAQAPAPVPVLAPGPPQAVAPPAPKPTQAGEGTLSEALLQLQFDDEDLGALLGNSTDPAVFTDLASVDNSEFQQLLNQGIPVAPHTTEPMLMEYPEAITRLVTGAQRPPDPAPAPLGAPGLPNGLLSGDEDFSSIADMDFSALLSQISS

The compound `C=C(C)C(CC)CC[C@@H](C)[C@H]1CC[C@@]2(C)[C@@H]3C[C@H](OS(=O)(=O)O)[C@H]4[C@@H](O)[C@H](OS(=O)(=O)O)[C@@H](OS(=O)(=O)O)C[C@]4(C)C3=CC[C@]12C` (some centres undefined) [Spheciosterol sulfate A] came in with an EC50 of 12 µM. Under `C=C(C)C(CC[C@@H](C)[C@H]1CC[C@@]2(C)[C@@H]3C[C@H](OS(=O)(=O)O)[C@H]4[C@@H](O)[C@H](OS(=O)(=O)O)[C@@H](OS(=O)(=O)O)C[C@]4(C)C3=CC[C@]12C)C(C)C` (some centres undefined) [Spheciosterol sulfate B] stands 12 µM; under `C=C(C)C(C)(C)C(C)CC[C@@H](C)[C@H]1CC[C@@]2(C)[C@@H]3C[C@H](OS(=O)(=O)O)[C@H]4[C@@H](O)[C@H](OS(=O)(=O)O)[C@@H](OS(=O)(=O)O)C[C@]4(C)C3=CC[C@]12C` (some centres undefined) [Spheciosterol sulfate C], 12 µM; under `CC(C)C1(CC[C@@H](C)[C@H]2CC[C@@]3(C)[C@@H]4C[C@H](OS(=O)(=O)O)[C@H]5[C@@H](O)[C@H](OS(=O)(=O)O)[C@@H](OS(=O)(=O)O)C[C@]5(C)C4=CC[C@]23C)CC1C` (some centres undefined) [Topsentiasterol sulfate E], 12 µM.
